A short description of the assay: Potency code of Table 2 (assay not stated).
Take `Cn1cc(-c2ccccc2)c(-c2ccc(OCc3ccc(Cl)cc3)cc2O)n1` [NUCC-0198294]: the Potency code result is listed as “+ (>40 +)”.

On to `Oc1cc(OCc2ccc(Cl)cc2)ccc1-c1n[nH]c(C(F)(F)F)c1-c1ccccc1` [NUCC-0198295], for which the Potency code entry is recorded as “++++ (<10 ++++)”.

In the case of `Cn1nc(C(F)(F)F)c(-c2ccccc2)c1-c1ccc(OCc2ccc(Cl)cc2)cc1O` [NUCC-0198296], the Potency code result is recorded as “+ (>40 +)”.

Take `Cn1nc(-c2ccc(OCc3ccc(Cl)cc3)cc2O)c(-c2ccccc2)c1C(F)(F)F` [NUCC-0198297]: the Potency code result was “+ (>40 +)”.

In the case of `Cc1[nH]nc(-c2ccc(OCc3ccc(Cl)cc3)cc2O)c1-c1ccccc1` [NUCC-0198298], the Potency code result is listed as “+ (>40 +)”.

`Cc1nn(C)c(-c2ccc(OCc3ccc(Cl)cc3)cc2O)c1-c1ccccc1` [NUCC-0198299]: the Potency code result is on record as “+ (>40 +)”.

Regarding `Cc1c(-c2ccccc2)c(-c2ccc(OCc3ccc(Cl)cc3)cc2O)nn1C` [NUCC-0198300], the Potency code result is “+ (>40 +)”.

As for `CCc1[nH]nc(-c2ccc(OCc3ccc(Cl)cc3)cc2O)c1-c1ccccc1` [NUCC-0198301], the Potency code result is “+ (>40 +)”.

For `CCc1nn(C)c(-c2ccc(OCc3ccc(Cl)cc3)cc2O)c1-c1ccccc1` [NUCC-0198302], the Potency code result is “+ (>40 +)”.

For the compound `CCc1c(-c2ccccc2)c(-c2ccc(OCc3ccc(Cl)cc3)cc2O)nn1C` [NUCC-0198303], the Potency code entry is “+ (>40 +)”.

Regarding `COc1ccc(-c2c[nH]nc2-c2ccc(OCc3ccc(Cl)cc3)cc2O)cc1` [NUCC-0198304], the Potency code entry is “+ (>40 +)”.

As for `COc1ccc(-c2cn(C)nc2-c2ccc(OCc3ccc(Cl)cc3)cc2O)cc1` [NUCC-0198305], the Potency code entry was “+ (>40 +)”.

For the compound `COc1ccc(-c2c(C)nn(C)c2-c2ccc(OCc3ccc(Cl)cc3)cc2O)cc1` [NUCC-0198306], the Potency code entry was “+ (>40 +)”.

Consider `COc1ccc(-c2c(-c3ccc(OCc4ccc(Cl)cc4)cc3O)nn(C)c2C)cc1` [NUCC-0198307], for which the Potency code result was “+ (>40 +)”.

As for `COc1cccc(-c2c[nH]nc2-c2ccc(OCc3ccc(Cl)cc3)cc2O)c1` [NUCC-0198308], the Potency code entry is “+ (>40 +)”.

`COc1cccc(-c2c(C(F)(F)F)nn(C)c2-c2ccc(OCc3ccc(Cl)cc3)cc2O)c1` [NUCC-0198310]: the Potency code result was “+ (>40 +)”.

Regarding `COc1cccc(-c2c(-c3ccc(OCc4ccc(Cl)cc4)cc3O)nn(C)c2C(F)(F)F)c1` [NUCC-0198311], the Potency code entry is on record as “+ (>40 +)”.

Take `COc1cccc(-c2c(-c3ccc(OCc4ccc(Cl)cc4)cc3O)n[nH]c2C)c1` [NUCC-0198312]: the Potency code entry is “+ (>40 +)”.

As to `COc1cccc(-c2c(C)nn(C)c2-c2ccc(OCc3ccc(Cl)cc3)cc2O)c1` [NUCC-0198313], the Potency code result is “+ (>40 +)”.

Turning to `COc1cccc(-c2c(-c3ccc(OCc4ccc(Cl)cc4)cc3O)nn(C)c2C)c1` [NUCC-0198314], the Potency code result is listed as “+ (>40 +)”.

With `CCc1[nH]nc(-c2ccc(OCc3ccc(Cl)cc3)cc2O)c1-c1cccc(OC)c1` [NUCC-0198315], the Potency code result is listed as “+ (>40 +)”.

With `CCc1nn(C)c(-c2ccc(OCc3ccc(Cl)cc3)cc2O)c1-c1cccc(OC)c1` [NUCC-0198316], the Potency code result was “+ (>40 +)”.

`CCc1c(-c2cccc(OC)c2)c(-c2ccc(OCc3ccc(Cl)cc3)cc2O)nn1C` [NUCC-0198317]: the Potency code result was “+ (>40 +)”.

On to `Oc1cc(OCc2ccc(Cl)cc2)ccc1-c1n[nH]cc1-c1cc(C(F)(F)F)cc(C(F)(F)F)c1` [NUCC-0198318], for which the Potency code entry was “++ (30-40 ++)”.

In the case of `Cn1cc(-c2cc(C(F)(F)F)cc(C(F)(F)F)c2)c(-c2ccc(OCc3ccc(Cl)cc3)cc2O)n1` [NUCC-0198319], the Potency code entry is recorded as “+ (>40 +)”.

For `Oc1cc(OCc2ccc(Cl)cc2)ccc1-c1n[nH]cc1-c1cccnc1` [NUCC-0198320], the Potency code result is listed as “+ (>40 +)”.

On to `Cn1cc(-c2cccnc2)c(-c2ccc(OCc3ccc(Cl)cc3)cc2O)n1` [NUCC-0198321], for which the Potency code entry is “+ (>40 +)”.

As for `Oc1cc(OCc2ccc(Cl)cc2)ccc1-c1n[nH]cc1-c1ccoc1` [NUCC-0198322], the Potency code result is “++ (30-40 ++)”.

Consider `Cn1ncc(-c2ccoc2)c1-c1ccc(OCc2ccc(Cl)cc2)cc1O` [NUCC-0198323], for which the Potency code result is on record as “+ (>40 +)”.

As to `Cn1cc(-c2ccoc2)c(-c2ccc(OCc3ccc(Cl)cc3)cc2O)n1` [NUCC-0198324], the Potency code result is on record as “+ (>40 +)”.

For the compound `Oc1c(-c2cc(C(F)(F)F)[nH]n2)ccc(OCc2ccc(Cl)cc2)c1-c1ccoc1` [NUCC-0198325], the Potency code result was “+ (>40 +)”.

Take `COc1cccc(-c2cn(C)nc2-c2ccc(OCc3ccc(Cl)cc3)cc2O)c1` [NUCC-0198326]: the Potency code entry is recorded as “+ (>40 +)”.

Take `Cc1cc(C)cc(-c2c[nH]nc2-c2ccc(OCc3ccc(Cl)cc3)cc2O)c1` [NUCC-0198352]: the Potency code result was “+ (>40 +)”.

`Cc1cc(C)cc(-c2cn(C)nc2-c2ccc(OCc3ccc(Cl)cc3)cc2O)c1` [NUCC-0198353]: the Potency code entry is “+ (>40 +)”.

`Cc1cc(C)cc(-c2cnn(C)c2-c2ccc(OCc3ccc(Cl)cc3)cc2O)c1` [NUCC-0198354]: the Potency code entry is reported as “+ (>40 +)”.

Turning to `Cc1ccccc1-c1c[nH]nc1-c1ccc(OCc2ccc(Cl)cc2)cc1O` [NUCC-0198355], the Potency code entry was “+ (>40 +)”.

For the compound `Cc1ccccc1-c1cn(C)nc1-c1ccc(OCc2ccc(Cl)cc2)cc1O` [NUCC-0198356], the Potency code entry is given as “+ (>40 +)”.

Consider `COc1ccccc1-c1c[nH]nc1-c1ccc(OCc2ccc(Cl)cc2)cc1O` [NUCC-0198357], for which the Potency code entry is given as “+ (>40 +)”.

On to `COc1ccccc1-c1cn(C)nc1-c1ccc(OCc2ccc(Cl)cc2)cc1O` [NUCC-0198358], for which the Potency code entry is recorded as “+ (>40 +)”.

Turning to `Cc1cc(C)c(-c2c[nH]nc2-c2ccc(OCc3ccc(Cl)cc3)cc2O)c(C)c1` [NUCC-0198359], the Potency code result is “++ (30-40 ++)”.

Take `Cc1cc(C)c(-c2cn(C)nc2-c2ccc(OCc3ccc(Cl)cc3)cc2O)c(C)c1` [NUCC-0198360]: the Potency code result is “+ (>40 +)”.

Turning to `Cn1cc(-c2c[nH]nc2-c2ccc(OCc3ccc(Cl)cc3)cc2O)cn1` [NUCC-0198361], the Potency code result is “+ (>40 +)”.

Regarding `Cn1cc(-c2cn(C)nc2-c2ccc(OCc3ccc(Cl)cc3)cc2O)cn1` [NUCC-0198362], the Potency code entry is “+ (>40 +)”.

For `N#Cc1ccc(-c2c(OCc3ccc(Cl)cc3)ccc(-c3cc(C(F)(F)F)[nH]n3)c2O)cc1` [NUCC-0198391], the Potency code result was “++++ (<10 ++++)”.

Turning to `Cn1nc(C(F)(F)F)cc1-c1ccc(OCc2ccc(Cl)cc2)c(-c2ccc(C#N)cc2)c1O` [NUCC-0198392], the Potency code result is recorded as “+ (>40 +)”.

Consider `Cn1nc(-c2ccc(OCc3ccc(Cl)cc3)c(-c3ccc(C#N)cc3)c2O)cc1C(F)(F)F` [NUCC-0198393], for which the Potency code result is given as “+ (>40 +)”.

Take `NC(=O)c1ccc(-c2c(OCc3ccc(Cl)cc3)ccc(-c3cc(C(F)(F)F)[nH]n3)c2O)cc1` [NUCC-0198394]: the Potency code entry was “++ (30-40 ++)”.

Take `CN/N=C(/C)c1ccc(-c2c(OCc3ccc(Cl)cc3)ccc(-c3cc(C(F)(F)F)[nH]n3)c2O)cc1` [NUCC-0198395]: the Potency code result is reported as “+ (>40 +)”.

`CN/N=C(/C)c1ccc(-c2c(OCc3ccc(Cl)cc3)ccc(-c3cc(C(F)(F)F)nn3C)c2O)cc1` [NUCC-0198396]: the Potency code result was “+ (>40 +)”.

Take `CN/N=C(/C)c1ccc(-c2c(OCc3ccc(Cl)cc3)ccc(-c3cc(C(F)(F)F)n(C)n3)c2O)cc1` [NUCC-0198397]: the Potency code result is “+ (>40 +)”.

`N#Cc1cccc(-c2c(OCc3ccc(Cl)cc3)ccc(-c3cc(C(F)(F)F)[nH]n3)c2O)c1` [NUCC-0198398]: the Potency code result is “++++ (<10 ++++)”.

As for `Cn1nc(-c2ccc(OCc3ccc(Cl)cc3)c(-c3cccc(C#N)c3)c2O)cc1C(F)(F)F` [NUCC-0198400], the Potency code entry is “+ (>40 +)”.

Turning to `NC(=O)c1cccc(-c2c(OCc3ccc(Cl)cc3)ccc(-c3cc(C(F)(F)F)[nH]n3)c2O)c1` [NUCC-0198401], the Potency code result is “+ (>40 +)”.

Turning to `Cn1nc(C(F)(F)F)cc1-c1ccc(OCc2ccc(Cl)cc2)c(-c2cccc(C(N)=O)c2)c1O` [NUCC-0198402], the Potency code entry was “+ (>40 +)”.

On to `CN/N=C(/C)c1cccc(-c2c(OCc3ccc(Cl)cc3)ccc(-c3cc(C(F)(F)F)[nH]n3)c2O)c1` [NUCC-0198403], for which the Potency code entry was “+ (>40 +)”.

For the compound `CN/N=C(\C)c1cccc(-c2c(OCc3ccc(Cl)cc3)ccc(-c3cc(C(F)(F)F)nn3C)c2O)c1` [NUCC-0198404], the Potency code result is given as “+ (>40 +)”.

Regarding `CN/N=C(\C)c1cccc(-c2c(OCc3ccc(Cl)cc3)ccc(-c3cc(C(F)(F)F)n(C)n3)c2O)c1` [NUCC-0198405], the Potency code result is recorded as “+ (>40 +)”.

With `CCc1ccc(Oc2c(-c3ccc(O)cc3O)n[nH]c2C(F)(F)F)cc1` [NUCC-0198406], the Potency code entry was “++++ (<10 ++++)”.

With `Cn1nc(C(F)(F)F)cc1-c1ccc(OCc2ccc(Cl)cc2)c(Br)c1O` [NUCC-0198407], the Potency code entry is listed as “+++ (10-30 +++)”.

As for `Cn1nc(-c2ccc(OCc3ccc(Cl)cc3)c(Br)c2O)cc1C(F)(F)F` [NUCC-0198408], the Potency code entry is “+ (>40 +)”.

`Cn1nc(C(F)(F)F)cc1-c1ccc(OCc2ccc(Cl)cc2)c(-c2ccc(C(N)=O)cc2)c1O` [NUCC-0198409]: the Potency code entry is “+ (>40 +)”.

Regarding `Cn1nc(C(F)(F)F)cc1-c1ccc(OCc2ccc(Cl)cc2)c(-c2ccccc2OC(F)(F)F)c1O` [NUCC-0198410], the Potency code result is “+ (>40 +)”.

On to `CCc1ccc(Oc2c(-c3ccc(O)cc3O)nn(C)c2C(F)(F)F)cc1` [NUCC-0198411], for which the Potency code result is “+++ (10-30 +++)”.

Consider `Cn1nc(C(F)(F)F)cc1-c1ccc(OCc2ccc(Cl)cc2)cc1O` [NUCC-0198412], for which the Potency code entry is “+ (>40 +)”.

Regarding `CCOC(=O)c1cc(-c2ccc(OCc3ccc(Cl)cc3)c(-c3ccc(C#N)cc3)c2O)n[nH]1` [NUCC-0200489], the Potency code result is listed as “+ (>40 +)”.

For the compound `Oc1c(-c2cc(C(F)(F)F)[nH]n2)ccc(OCc2ccc(Cl)cc2)c1Cc1ccccc1Cl` [NUCC-0200490], the Potency code entry is “+ (>40 +)”.

Regarding `Oc1cc(Nc2ccc(Cl)cc2)ccc1-c1cc(C(F)(F)F)[nH]n1` [NUCC-0200491], the Potency code result was “++++ (<10 ++++)”.

These data come from US20200392116A1, “SUBSTITUTED HETEROCYCLES AS c-MYC TARGETING AGENTS” (NORTHWESTERN UNIVERSITY, priority 2019, published 2020).
